Data on two molecules can be found in publication PMC7006622 (2019).

For assay [1], the system named is TWJ molecular switch for ATP (B3/G12 split aptamer, with FP1 and CP1) (DNA, aptamer) TGGGATTGGAAGGAGGCGTCCGTACTCTATGAGCCTCTG/TATGAGGGGGTCCACCGTGT/AAACACGGATCCCATA
Description: single-molecule TIRF, transient binding of fluorescent probe. Conditions: 1× PBS; qualitative; oxygen scavenger system; surface-immobilised DNA.

Assay [2] concerns TWJ molecular switch for 17β-estradiol (B5/G14 split aptamer, with FP1 and CP1) (DNA, aptamer) TAGGGTGCGGCTCTGCGCATTCAATTGCTGCGCGCTGAAGCGCGGAAGCCCGTACTCTATGAGCCTCTG/GCTTCCAGCTTATTGAATTACACGCAGAGGGTACCGTGT/AAACACGGATCCCATA
Description: single-molecule TIRF, fluorescent probe binding kinetics. The settings on record: 1× PBS; apparent; read from calibration curve of probe kon,F and koff,F against Kd; oxygen scavenger system; surface-immobilised DNA.

`Nc1ncnc2c1ncn2[C@@H]1O[C@H](COP(=O)(O)OP(=O)(O)OP(=O)(O)O)[C@@H](O)[C@H]1O`: in assay [1], the binding result is “yes”.
Take `C[C@]12CC[C@@H]3c4ccc(O)cc4CC[C@H]3[C@@H]1CC[C@@H]2O`: the Kd in assay [2] is 18 nM.
